Test results taken from US20260007673A1, “ROCK2 INHIBITORS FOR THE TREATMENT OF VIRAL INFECTIONS” (GRAVITON BIOSCIENCE BV, priority 2022, published 2026).

Experiments:
[1] = test system: SARS-CoV-2 Omicron variant; format: in vivo, mice; settings: 100 and 300 mg/kg daily oral gavage, 7, 14, 21 days (FIG. 15B)
SARS-CoV-2 Delta variant = format: in vivo, mice; settings: 100 and 300 mg/kg daily oral gavage

SMILES: Cn1c(C(=O)N2CC(F)(F)C2)cc2ccc(-c3nccc(Nc4ccc(-c5cn[nH]c5)cc4)n3)cc21 [Compound 2, (6-(4-((4-(1H-pyrazol-4-yl)phenyl)amino)pyrimidin-2-yl)-1-methyl-1H-indol-2-yl)(3,3-difluoroazetidin-1-yl)methanone]
- viral load in the lung [1]: effect was observed
- viral load in the lung (SARS-CoV-2 Delta variant): effect was observed
